Results reported in patent US10757941B2, “Microbiocidal oxadiazole derivatives” (SYNGENTA PARTICIPATIONS AG, priority 2016, dated 2020).

How the values were obtained:
[1] = tested on: Puccinia recondita f. Sp. Tritici; assay: Fungicidal activity against Puccinia recondita f. sp. tritici / wheat / leaf disc curative (brown rust); type: in vivo; conditions: foliar, 200 ppm in the applied formulation, wheat leaf segments cv. Kanzler, curative (applied 1 day after inoculation), assessed 6 to 8 days after application, compared to untreated, read-out: disease control
Description: Leaf disks or leaf segments of various plant species are cut from plants grown in a greenhouse. The cut leaf disks or segments are placed in multiwell plates (24-well format) onto water agar. The leaf disks are sprayed with a test solution before (preventative) or after (curative) inoculation. Compounds to be tested are prepared as DMSO solutions (max. 10 mg/ml) which are diluted to the appropriate concentration with 0.025% Tween20 just before spraying. The inoculated leaf disks or segments are incubated under defined conditions (temperature, relative humidity, light, etc.) according to the respective test system. A single evaluation of disease level is carried out 3 to 14 days after inoculation, depending on the pathosystem. Percent disease control relative to the untreated check leaf disks or segments is then calculated. Example 2: Fungicidal Activity Against Puccinia recondita f. Sp. Tritici/Wheat/Leaf Disc Curative (Brown Rust) Wheat leaf segments cv. Kanzler are placed on agar in multiwell plates (24-well format). The leaf segments are then inoculated with a spore suspension of the fungus. Plates were stored in darkness at 19° C. and 75% relative humidity. The formulated test compound diluted in water was applied 1 day after inoculation. The leaf segments were incubated at 19° C. and 75% relative humidity under a light regime of 12 hours light/12 hours darkness in a climate cabinet and the activity of a compound was assessed as percent disease control compared to untreated when an appropriate level of disease damage appears in untreated check leaf segments (6 to 8 days after application). The following compounds at 200 ppm in the applied formulation give at least 80% disease control in this test when compared to untreated control leaf disks under the same conditions, which show extensive disease development.

Uromyces viciae-fabael = assay: Fungicidal activity against Uromyces viciae-fabae / field bean / leaf disc preventative (faba-bean rust); type: in vivo; conditions: foliar, 288 h, 100 ppm in the applied formulation, field bean leaf discs, preventative (inoculated two hours after application), assessed 12 days after application, compared to untreated, read-out: disease control
In short: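 Field bean leaf discs on water agar treated with compound in acetone plus spreader, then inoculated 2 h later by spraying U. viciae-fabae spores on the lower surface. Incubation at 22° C, 18 h day, 70% RH; percent disease control versus untreated scored 12 days after application.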

[2] = tested on: Glomerella lagenarium (Colletotrichum lagenarium); assay: Fungicidal activity against Glomerella lagenarium (Colletotrichum lagenarium) liquid culture / cucumber / preventative (anthracnose); type: cell-based; conditions: Colletotrichum orbiculare; 20 ppm in the applied formulation; liquid culture in PDB, 24° C.; inhibition of growth measured photometrically 3 to 4 days after application; compared to untreated; read-out: disease control
In short: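 Conidia of C. lagenarium from cryogenic storage mixed into potato dextrose broth and added to test compound (DMSO solution) in microtiter plates; incubated at 24° C. Growth inhibition read photometrically 3 to 4 days after application, as percent activity versus untreated check.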

[3] = tested on: Puccinia recondita f. Sp. Tritici; assay: Fungicidal activity against Puccinia recondita f. sp. tritici / wheat / leaf disc preventative (brown rust); type: in vivo; conditions: foliar, 200 ppm in the applied formulation, wheat leaf segments cv. Kanzler, preventative (inoculated 1 day after application), assessed 7 to 9 days after application, compared to untreated, read-out: disease control
In short: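 Wheat cv. Kanzler leaf segments on agar sprayed with formulated compound diluted in water; spore inoculation 1 day after application. Incubated at 19° C., 75% rh, 12 h light/12 h dark; percent disease control versus untreated scored 7 to 9 days after application.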

Phakopsora pachyrhizi = assay: Fungicidal activity against Phakopsora pachyrhizi / soybean / leaf disc preventative (Asian soybean rust); type: in vivo; conditions: foliar, 200 ppm in the applied formulation, soybean leaf disks, preventative (inoculated one day after application), assessed 12 to 14 days after application, compared to untreated, read-out: disease control
In short: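 Preventative test: soybean leaf discs on water agar sprayed with compound diluted in water, inoculated with spore suspension on lower surface one day later. Incubated 24-36 h dark at 20° C., 75% rh, then 12 h light/day; percent disease control versus untreated assessed 12 to 14 days after application.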

CC(NC(=O)c1ccc(-c2noc(C(F)(F)F)n2)c(F)c1)C1CC1 (stereo not shown) [Compound 1.25, N-(1-cyclopropylethyl)-3-fluoro-4-[5-(trifluoromethyl)-1,2,4-oxadiazol-3-yl]benzamide]
≥ 80%: pest or weed control at 200 ppm [1] | pest or weed control at 100 ppm (Uromyces viciae-fabael) | inhibition of growth at 20 ppm [2] | pest or weed control at 200 ppm [3] | pest or weed control at 200 ppm (Phakopsora pachyrhizi)

O=C(NCc1ccco1)c1ccc(-c2noc(C(F)(F)F)n2)c(F)c1 [Compound 1.31, 3-fluoro-N-(2-furylmethyl)-4-[5-(trifluoromethyl)-1,2,4-oxadiazol-3-yl]benzamide]
≥ 80%: pest or weed control at 200 ppm [1] | pest or weed control at 100 ppm (Uromyces viciae-fabael) | inhibition of growth at 20 ppm [2] | pest or weed control at 200 ppm [3] | pest or weed control at 200 ppm (Phakopsora pachyrhizi)
